# Assay results as given in US20090124587A1, “METHODS FOR TREATING CANCER USING 17alpha-HYDROXYLASE/C17,20-LYASE INHIBITORS” (priority 2007, published 2009).
# Read-outs that look alike come from different tables or passages of the source.
# Assay: Food effect PK study, two single oral 1000 mg doses of abiraterone acetate, fed (high fat) vs fasted
# Type: in vivo, human
# Conditions: for concentration at 1.017 h: read-out: Abiraterone Concentration in plasma; for clearance: read-out: Cl F obs (converted); for Vd/F: read-out: Vz F obs; for concentration at 1.033 hr: sample time 1.033 hr; for concentration at 6 hr: sample time 6.000 hr; for concentration at 8 hr: sample time 8.000 hr; for concentration at 1 hr: sample time 1.000 hr; for concentration at 7.983 hr: sample time 7.983 hr
# Description: To measure the amount of abiraterone and abiraterone acetate in the samples, these compounds were extracted from 100 uL human plasma using solid phase extraction (SPE) with cation mixed-mode polymer cartridges. Extracts were evaporated to dryness before reconstitution and analysis. Chromatography was carried out using a Luna™ C5 column (5 μm, 50 mm×2.1 mm id) with a gradient mobile phase consisting of 10 mM ammonium acetate and 2% propan-2-ol in acetonitrile. The flow rate was 0.2 mL/min and the run time 10.5 minutes. Abiraterone and abiraterone acetate were ionized using the electrospray interface in positive ion mode. Detection of analytes was via tandem mass spectrometry (MS/MS) in the multiple reaction monitoring (MRM) mode.
# PK modeling was conducted using a non-compartmental model, extra vascular input for plasma with WinNonLin Software®. Pharmacokinetic parameters estimated in the model include:
# Based on the above results, the PK parameters for a single dose of 1000 mg/day of abiraterone acetate were further studied in the 3 subjects who were administered the 1000 mg/day dose and in 3 additional subjects. Two single oral doses (1000 mg) of abiraterone acetate were administered separately, one concomitantly with food of high fat content and one in fasting state. The first single dose was administered on day −9 with PK blood samples being taken at 1, 2, 4, 6, 8, 24, 48 and 72 hours post dose. The second single dose was administered on day −3 with PK blood samples being taken at 1, 2, 4, 6, 8, 24 and 48 hours post dose for analysis.
# [1] = human, plasma, oral, 1000 mg, Patient 13, 1000 mg, Fasted
# [2] = human, plasma, oral, 1000 mg, Patient 13, 1000 mg, Fed
# [3] = human, plasma, oral, 1000 mg, Patient 13, Fasted
# [4] = human, plasma, oral, 1000 mg, Patient 13, Fed
# [5] = human, plasma, oral, 1000 mg, Patient 14, 1000 mg, Fasted
# [6] = human, plasma, oral, 1000 mg, Patient 14, 1000 mg, Fed
# [7] = human, plasma, oral, 1000 mg, Patient 14, Fasted
# [8] = human, plasma, oral, 1000 mg, Patient 14, Fed
# [9] = human, plasma, oral, 1000 mg, Patient 15, 1000 mg, Fasted
# [10] = human, plasma, oral, 1000 mg, Patient 15, 1000 mg, Fed
# [11] = human, plasma, oral, 1000 mg, Patient 15, Fasted
# [12] = human, plasma, oral, 1000 mg, Patient 15, Fed
compound,measurement,setting,value
C[C@]12CC[C@H](O)CC1=CC[C@@H]1[C@@H]2CC[C@]2(C)C(c3cccnc3)=CC[C@@H]12 [Abiraterone],Abiraterone plasma levels with food in comparison with fasting,"1000 mg, concomitantly with food vs fasting",higher
same,HL,"Patient 13, 1000 mg, Fasted",10.2 h
same,HL,"Patient 13, 1000 mg, Fed",10.7 h
same,concentration at 1.017 h,"Patient 13, Fasted, 1000 mg, pre-dose (day −3)",0.0 nM
same,concentration at 1.017 h,"Patient 13, Fed, 1000 mg, pre-dose (day −9)",0.0 nM
same,Abiraterone Concentration in plasma,"Patient 13, Fed, 1000 mg, sample time 72.000 hr",BLLOQ^1
same,HL,"Patient 14, 1000 mg, Fasted",6.6 h
same,HL,"Patient 14, 1000 mg, Fed",8.8 h
same,concentration at 1.017 h,"Patient 14, Fasted, 1000 mg, pre-dose (day −9)",0.0 nM
same,Abiraterone Concentration in plasma,"Patient 14, Fasted, 1000 mg, sample time 48.217 hr",BLLOQ
same,concentration at 1.017 h,"Patient 14, Fed, 1000 mg, pre-dose (day −3)",0.0 nM
same,HL,"Patient 15, 1000 mg, Fasted",6.6 h
same,HL,"Patient 15, 1000 mg, Fed",8.0 h
same,Abiraterone Concentration in plasma,"Patient 15, Fasted, 1000 mg, pre-dose (day −3)",BLLOQ
same,concentration at 1.017 h,"Patient 15, Fed, 1000 mg, pre-dose (day −9)",0.0 nM
same,Abiraterone Concentration in plasma,"Patient 15, Fed, 1000 mg, sample time 2.000 hr",BLLOQ
same,Abiraterone Concentration in plasma,"Patient 15, Fed, 1000 mg, sample time 70.100 hr",BLLOQ
same,HL,"Patient 19, 1000 mg, Fasted",8.0 h
same,HL,"Patient 19, 1000 mg, Fed",10.0 h
same,concentration at 1.017 h,"Patient 19, Fasted, 1000 mg, pre-dose (day −9)",0.0 nM
same,Abiraterone Concentration in plasma,"Patient 19, Fasted, 1000 mg, sample time 71.950 hr",BLLOQ
same,concentration at 1.017 h,"Patient 19, Fed, 1000 mg, pre-dose (day −3)",0.0 nM
same,HL,"Patient 20, 1000 mg, Fasted",15.3 h
same,HL,"Patient 20, 1000 mg, Fed",18.3 h
same,concentration at 1.017 h,"Patient 20, Fasted, 1000 mg, pre-dose (day −3)",5.1 nM
same,Abiraterone Concentration in plasma,"Patient 20, Fed, 1000 mg, pre-dose (day −9)",BLLOQ
same,HL,"Patient 21, 1000 mg, Fasted",12.6 h
same,HL,"Patient 21, 1000 mg, Fed",9.7 h
same,concentration at 1.017 h,"Patient 21, Fasted, 1000 mg, pre-dose (day −9)",0 nM
same,Abiraterone Concentration in plasma,"Patient 21, Fed, 1000 mg, pre-dose (day −3)",BLLOQ
same,difference in mean drug levels between the dosing regimes (fed vs fasted),extended cohort of six patients,Up to a two fold difference
same,clearance,[1],12600 mL/min
same,Vd/F,[1],11100 L
same,clearance,[2],4240 mL/min
same,Vd/F,[2],3920 L
same,AUC(0-inf),[3],3.78 µM·h
same,AUC(0-t),[3],3.7 µM·h
same,Cmax,[3],548 nM
same,Tmax,[3],1.03 h
same,concentration at 1.033 hr,[3],548 nM
same,concentration at 2.017 hr,"human, plasma, oral, 1000 mg, Patient 13, Fasted, sample time 2.017 hr",500 nM
same,concentration at 4 hr,"human, plasma, oral, 1000 mg, Patient 13, Fasted, sample time 4.000 hr",304 nM
same,concentration at 6 hr,[3],104 nM
same,concentration at 8 hr,[3],89.4 nM
same,concentration at 24.667 hr,"human, plasma, oral, 1000 mg, Patient 13, Fasted, sample time 24.667 hr",34.1 nM
same,concentration at 48.117 hr,"human, plasma, oral, 1000 mg, Patient 13, Fasted, sample time 48.117 hr",5.8 nM
same,AUC(0-inf),[4],11.2 µM·h
same,AUC(0-t),[4],10.8 µM·h
same,Cmax,[4],1180 nM
same,Tmax,[4],4 h
same,concentration at 1 hr,[4],130 nM
same,concentration at 2 h,"human, plasma, oral, 1000 mg, Patient 13, Fed, sample time 2.000 hr",675 nM
same,concentration at 4 h,"human, plasma, oral, 1000 mg, Patient 13, Fed, sample time 4.000 hr",1180 nM
same,concentration at 7.983 hr,[4],392 nM
same,concentration at 23.983 hr,"human, plasma, oral, 1000 mg, Patient 13, Fed, sample time 23.983 hr",93.7 nM
same,concentration at 48.5 hr,"human, plasma, oral, 1000 mg, Patient 13, Fed, sample time 48.500 hr",26.8 nM
same,clearance,[5],32600 mL/min
same,Vd/F,[5],18500 L
same,clearance,[6],4050 mL/min
same,Vd/F,[6],3070 L
same,AUC(0-inf),[7],1.46 µM·h
same,AUC(0-t),[7],1.35 µM·h
same,Cmax,[7],205 nM
same,Tmax,[7],4.07 h
same,concentration at 1 hr,[7],76.3 nM
same,concentration at 2 hr,"human, plasma, oral, 1000 mg, Patient 14, Fasted, sample time 2.000 hr",82.5 nM
same,concentration at 4.067 hr,"human, plasma, oral, 1000 mg, Patient 14, Fasted, sample time 4.067 hr",205 nM
same,concentration at 6.05 hr,"human, plasma, oral, 1000 mg, Patient 14, Fasted, sample time 6.050 hr",99.8 nM
same,concentration at 8.017 hr,"human, plasma, oral, 1000 mg, Patient 14, Fasted, sample time 8.017 hr",48.6 nM
same,concentration at 24.017 hr,"human, plasma, oral, 1000 mg, Patient 14, Fasted, sample time 24.017 hr",12.1 nM
same,concentration at 71.333 hr,"human, plasma, oral, 1000 mg, Patient 14, Fasted, sample time 71.333 hr",0 nM
same,AUC(0-inf),[8],11.8 µM·h
same,AUC(0-t),[8],11.6 µM·h
same,Cmax,[8],2210 nM
same,Tmax,[8],1.03 h
same,concentration at 1.033 hr,[8],2210 nM
same,concentration at 2.033 hr,"human, plasma, oral, 1000 mg, Patient 14, Fed, sample time 2.033 hr",1770 nM
same,concentration at 4 hr,"human, plasma, oral, 1000 mg, Patient 14, Fed, sample time 4.000 hr",464 nM
same,concentration at 6 hr,[8],516 nM
same,concentration at 7.983 hr,[8],335 nM
same,concentration at 24.083 hr,"human, plasma, oral, 1000 mg, Patient 14, Fed, sample time 24.083 hr",79.7 nM
same,concentration at 47.7 hr,"human, plasma, oral, 1000 mg, Patient 14, Fed, sample time 47.700 hr",14.2 nM
same,clearance,[9],18400 mL/min
same,Vd/F,[9],10500 L
same,clearance,[10],4610 mL/min
same,Vd/F,[10],3190 L
same,AUC(0-inf),[11],2.59 µM·h
same,AUC(0-t),[11],2.37 µM·h
same,Cmax,[11],420 nM
same,Tmax,[11],2.98 h
same,concentration at 1 hr,[11],8.7 nM
same,concentration at 2.983 hr,"human, plasma, oral, 1000 mg, Patient 15, Fasted, sample time 2.983 hr",420 nM
same,concentration at 3.967 hr,"human, plasma, oral, 1000 mg, Patient 15, Fasted, sample time 3.967 hr",242 nM
same,concentration at 5.983 hr,"human, plasma, oral, 1000 mg, Patient 15, Fasted, sample time 5.983 hr",131 nM
same,concentration at 8 hr,[11],111 nM
same,concentration at 22.983 hr,"human, plasma, oral, 1000 mg, Patient 15, Fasted, sample time 22.983 hr",22.4 nM
same,AUC(0-inf),[12],10.3 µM·h
same,AUC(0-t),[12],10.1 µM·h
same,Cmax,[12],1120 nM
same,Tmax,[12],6.08 h
same,concentration at 1 hr,[12],0 nM
